The target in data set [1] is T1, human IL-23R (Homo sapiens, UniProt Q5VWK5).
T1 construct: Nanoluc luciferase (Nluc); secretion signal encoded by the plasmid (not specified); expressed in transfected cells; crude membranes used in the assay
T1 sequence (Q5VWK5 22-629): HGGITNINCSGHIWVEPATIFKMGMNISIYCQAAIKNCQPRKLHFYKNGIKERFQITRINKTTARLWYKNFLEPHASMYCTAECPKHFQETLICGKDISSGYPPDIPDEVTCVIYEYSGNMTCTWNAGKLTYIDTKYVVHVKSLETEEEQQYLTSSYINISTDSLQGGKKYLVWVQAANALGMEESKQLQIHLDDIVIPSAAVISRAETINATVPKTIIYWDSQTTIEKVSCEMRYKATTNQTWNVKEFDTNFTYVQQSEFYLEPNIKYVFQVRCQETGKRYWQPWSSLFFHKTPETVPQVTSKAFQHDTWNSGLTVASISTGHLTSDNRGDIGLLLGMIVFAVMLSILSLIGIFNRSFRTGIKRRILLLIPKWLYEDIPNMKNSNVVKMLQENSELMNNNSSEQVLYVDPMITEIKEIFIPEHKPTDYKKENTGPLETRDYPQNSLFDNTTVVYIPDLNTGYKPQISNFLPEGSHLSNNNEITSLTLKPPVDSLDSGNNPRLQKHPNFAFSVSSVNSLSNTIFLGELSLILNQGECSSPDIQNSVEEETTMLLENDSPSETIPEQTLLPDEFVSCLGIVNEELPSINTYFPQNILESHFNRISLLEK
Nature of the data set: Binding assay: displacement of fluorophore (TAMRA)-labelled reference compound from human IL-23R (BRET, Nluc-IL23R fusion protein membranes). To be noted: for Emax: read-out: % displacement (hIL-23R binding).

The test system of data set [2] is IL-23 mediated STAT3 signalling (DB cells). As to the kind of experiment: Functional inhibition of IL-23 mediated STAT3 signalling (phospho-STAT3 Tyr705) in DB cells. The data set is classed as cell-based, human. The settings on record: for IC50: Table 3-2, EC80 of hIL-23, read-out: hIL-23 (pSTAT3) antagonist IC50; for hIL-23 (pSTAT3) antagonist % inhibition: Table 3-2, maximal inhibitory response, EC80 of hIL-23. Put shortly: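 Phospho-STAT3 in lysed DB cells quantified by MSD kit after 90 min exposure to EC80 human IL-23, following 15 min compound pretreatment (37° C, 5% CO2). IC50 and maximal inhibition derived from curves normalized between IL-23-only and buffer-only controls.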

A short description of data set [3]: Peptide stability in simulated intestinal fluid (SIF). To be noted: pig, simulated intestinal fluid, SIF, pH 6.8, pancreatin, 37° C., 10 μM; for remaining at 4 h, 10 µM: read-out: SIF (% remaining 4 h). The data set is classed as in vitro ADME. The gist of the method: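 Peptide at 10 μM final in USP-type SIF (10 g/L porcine pancreatin, phosphate buffer pH 6.8), shaken at 37 °C. Samples at 0, 1 and 4 h quenched in acetonitrile/0.1% formic acid and analysed by LC-HRMS. Percent remaining calculated from absolute peak areas relative to time zero.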

Data set [4] can be described thus: Peptide stability in simulated gastric fluid (SGF). Format: in vitro ADME. To be noted: pig, pH 1.2, pepsin, 37° C. The gist of the method:
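Peptide (10 μM final) incubated at 37 °C in USP SGF, pH 1.2 with porcine pepsin 3.2 g/L; aliquots at 0, 1 and 4 h quenched in acidified acetonitrile.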

*1 amine or outer side, *2 acyl side, *3 side chain or, on linkers, in order; H or OH if unused. Where a SMILES comes first, the peptide text is derived from it. Bridges are numbered along the chain shown (N, C = ends). [ ]: non-standard residue; d: D form. The star is where a group is joined. 2Nal = N[C@@H](Cc1ccc2ccccc2c1)C(=O)O; AEF = NCCOc1ccc(C[C@H](N)C(=O)O)cc1; X1 = O=C(Cc1ccc(CN[*:1])cc1)[*:2]; 3Pal = N[C@@H](Cc1cccnc1)C(=O)O; αMeL = CC(C)C[C@](C)(N)C(=O)O; Pyrrolidide = C1CCN(*)C1; Dab = NCC[C@H](N)C(=O)O

What is called IC50 is the concentration that inhibits the measured activity by half.

As to `CNC(=O)[C@H](Cc1cccnc1)NC(=O)[C@H](CCO)NC(=O)[C@@H]1CCC(=O)NCc2ccc(cc2)CC(=O)N[C@@H](CO)C(=O)N[C@H]2CCC(=O)NCC[C@H](NC(=O)[C@H](CCC(N)=O)NC(=O)[C@H](Cc3c[nH]c4ccccc34)NC2=O)C(=O)N[C@@H](Cc2ccc(OCCN)cc2)C(=O)N[C@@H](Cc2ccc3ccccc3c2)C(=O)N[C@@](C)(CC(C)C)C(=O)N1` [Compound 36, [4-Aminomethyl-phenylacetyl](1c)*SE(2c)WQ[Dab](2c)[Y(2-aminoethoxy)][2-Nal][2-Me-Leu]E(1c)[hSer][3-(3-Pyridyl)-Ala]-[NHMe]], in data set [1], the Emax was found to be 94%. Moreover, in data set [2], the IC50 turned out to be 0.034 nM and the “hIL-23 (pSTAT3) antagonist % inhibition” value amounted to 103%. The share remaining at 1 h, 10 µM in data set [3] is 99%. In data set [4], the share remaining at 4 h, 10 µM was 103%.
For the compound `CNC(=O)[C@H](Cc1cccnc1)NC(=O)[C@H](CO)NC(=O)[C@@H]1CCC(=O)NCc2ccc(cc2)CC(=O)N[C@@H](CO)C(=O)N[C@H]2CCC(=O)NCC[C@H](NC(=O)[C@H](CCC(N)=O)NC(=O)[C@H](Cc3c[nH]c4ccccc34)NC2=O)C(=O)N[C@@H](Cc2ccc(OCCN)cc2)C(=O)N[C@@H](Cc2ccc3ccccc3c2)C(=O)N[C@@](C)(CC(C)C)C(=O)N1` [Compound 31, [4-Aminomethyl-phenylacetyl](1c)*SE(2c)WQ[Dab](2c)[Y(2-aminoethoxy)][2-Nal][2-Me-Leu]E(1c)S[3-(3-Pyridyl)-Ala]-[NHMe]] ([X1]SEWQ[Dab][AEF][2Nal][αMeL]ES[3Pal]-NHMe; lactam 3-6, N-10), the Emax in data set [1] came out at 97%. Moreover, in data set [2], the IC50 came to 0.06 nM and the “hIL-23 (pSTAT3) antagonist % inhibition” value is 101%. In addition, in data set [3], the share remaining at 1 h, 10 µM was 77%. In addition, in data set [4], the share remaining at 1 h, 10 µM is 101% and the fraction remaining at 4 h, 10 µM was 99%.
Regarding `CNC(=O)[C@H](Cc1cccnc1)NC(=O)[C@H](CCN)NC(=O)[C@@H]1CCC(=O)NCc2ccc(cc2)CC(=O)N[C@@H](CO)C(=O)N[C@H]2CCC(=O)NCC[C@H](NC(=O)[C@H](CCC(=O)N3CCCC3)NC(=O)[C@H](Cc3c[nH]c4ccccc34)NC2=O)C(=O)N[C@@H](Cc2ccc(OCCN)cc2)C(=O)N[C@@H](Cc2ccc3ccccc3c2)C(=O)N[C@@](C)(CC(C)C)C(=O)N1` [Compound 27, [4-Aminomethyl-phenylacetyl](1c)*SE(2c)W[Q(pyrrolidin)][Dab](2c)[Y(2-aminoethoxy)][2-Nal][2-Me-Leu]E(1c)[Dab][3-(3-Pyridyl)-Ala]-[NHMe]] ([X1]SEWE(Pyrrolidide)[Dab][AEF][2Nal][αMeL]E[Dab][3Pal]-NHMe; lactam 3-6, N-10), in data set [1], the IC50 is 0.017 nM and the Emax was determined as 97%. Also, in data set [2], the IC50 is 0.23 nM and the “hIL-23 (pSTAT3) antagonist % inhibition” value came out at 100%. For the same compound, in data set [3], the fraction remaining at 1 h, 10 µM was 90% and the fraction remaining at 4 h, 10 µM was 85%. Also, in data set [4], the fraction remaining at 1 h, 10 µM is 101% and the share remaining at 4 h, 10 µM is 96%.
Consider `CNC(=O)[C@H](Cc1cccnc1)NC(=O)[C@@H](CO)NC(=O)[C@@H]1CCC(=O)NCc2ccc(cc2)CC(=O)N[C@@H](CO)C(=O)N[C@H]2CCC(=O)NCC[C@H](NC(=O)[C@H](CCC(N)=O)NC(=O)[C@H](Cc3c[nH]c4ccccc34)NC2=O)C(=O)N[C@@H](Cc2ccc(OCCN)cc2)C(=O)N[C@@H](Cc2ccc3ccccc3c2)C(=O)N[C@@](C)(CC(C)C)C(=O)N1` [Compound 38, [4-Aminomethyl-phenylacetyl](1c)*SE(2c)WQ[Dab](2c)[Y(2-aminoethoxy)][2-Nal][2-Me-Leu]E(1c)[{d}S][3-(3-Pyridyl)-Ala]-[NHMe]], for which, in data set [1], the Emax was found to be 102%. Besides, the IC50 in data set [2] came out at 1 nM. Moreover, in data set [2], the “hIL-23 (pSTAT3) antagonist % inhibition” value is 100%. The fraction remaining at 1 h, 10 µM was 82% in data set [3] and 100% in data set [4].
On to `CCCC[C@H](NC(=O)[C@@H]1CCC(=O)NCc2ccc(cc2)CC(=O)N[C@@H](CO)C(=O)N[C@H]2CCC(=O)NCC[C@H](NC(=O)[C@H](CCC(N)=O)NC(=O)[C@H](Cc3c[nH]c4ccccc34)NC2=O)C(=O)N[C@@H](Cc2ccc(OCCN)cc2)C(=O)N[C@@H](Cc2ccc3ccccc3c2)C(=O)N[C@@](C)(CC(C)C)C(=O)N1)C(=O)N[C@@H](Cc1cccnc1)C(=O)NC` [Compound 32, [4-Aminomethyl-phenylacetyl](1c)*SE(2c)WQ[Dab](2c)[Y(2-aminoethoxy)][2-Nal][2-Me-Leu]E(1c)[Nle][3-(3-Pyridyl)-Ala]-[NHMe]], for which, in data set [1], the Emax turned out to be 98%. For the same compound, the fraction remaining at 1 h, 10 µM in data set [3] is 94%. The share remaining at 4 h, 10 µM in data set [4] is 90%.
As for `CSCC[C@H](NC(=O)[C@@H]1CSCC(=O)CSC[C@H](NC(=O)[C@@H](N)CCC(=O)O)C(=O)N[C@@H](Cc2c[nH]c3ccccc23)C(=O)N[C@@H](CC(C)C)C(=O)N[C@H]2CSCC(=O)CSC[C@H](NC(=O)[C@H](CC(N)=O)NC(=O)[C@H](CCCNC(=N)N)NC(=O)[C@H](Cc3ccc(O)cc3)NC(=O)[C@H](Cc3ccc(O)cc3)NC2=O)C(=O)N[C@@H](CC(N)=O)C(=O)N1)C(N)=O` (single isomer, unassigned) [I4 (isomer 3), H-EC(4a)WLC(5a)YYRNC(5a)NC(4a)M-[NH2], reference compound], the Emax in data set [1] is 84%. For the same compound, in data set [2], the half-inhibitory concentration (IC50) was > 1000 nM and the “hIL-23 (pSTAT3) antagonist % inhibition” value is reported as 23%. In data set [3], the share remaining at 1 h, 10 µM is 0% and the amount remaining at 4 h, 10 µM was 0%. In data set [4], the share remaining at 1 h, 10 µM was 99% and the amount remaining at 4 h, 10 µM is 99%.
With `CNC(=O)[C@H](Cc1cccnc1)NC(=O)[C@H](CCN)NC(=O)[C@@H]1CCC(=O)NCc2ccc(cc2)CC(=O)N[C@@H](C)C(=O)N[C@H]2CCC(=O)NCC[C@H](NC(=O)[C@H](CCC(N)=O)NC(=O)[C@H](Cc3c[nH]c4ccccc34)NC2=O)C(=O)N[C@@H](Cc2c[nH]c3c(F)cccc23)C(=O)N[C@@H](Cc2ccc3ccccc3c2)C(=O)NC(C)(C)C(=O)N1` [Compound 47, [4-Aminomethyl-phenylacetyl](1c)*AE(2c)WQ[Dab](2c)[7-F-Trp][2-Nal][Aib]E(1c)[Dab][3-(3-Pyridyl)-Ala]-[NHMe]], in data set [1], the IC50 was 0.069 nM. In data set [2], the 50% inhibitory concentration (IC50) came to 0.33 nM and the “hIL-23 (pSTAT3) antagonist % inhibition” value is given as 98%. For the same compound, in data set [3], the share remaining at 1 h, 10 µM is 97% and the fraction remaining at 4 h, 10 µM was 92%. Moreover, in data set [4], the fraction remaining at 1 h, 10 µM was 103% and the amount remaining at 4 h, 10 µM was 85%.
Take `CNC(=O)[C@H](Cc1cccnc1)NC(=O)[C@H](CCN)NC(=O)[C@@H]1CCC(=O)NCc2ccc(cc2)CC(=O)N[C@@H](CO)C(=O)N[C@H]2CCC(=O)NCC[C@H](NC(=O)[C@H](CCCCNC(C)=O)NC(=O)[C@H](Cc3c[nH]c4ccccc34)NC2=O)C(=O)N[C@@H](Cc2ccc(OCCN)cc2)C(=O)N[C@@H](Cc2ccc3ccccc3c2)C(=O)N[C@@](C)(CC(C)C)C(=O)N1` [Compound 24, [4-Aminomethyl-phenylacetyl](1c)*SE(2c)W[K(Ac)][Dab](2c)[Y(2-aminoethoxy)][2-Nal][2-Me-Leu]E(1c)[Dab][3-(3-Pyridyl)-Ala]-[NHMe]] ([X1]SEWK(Ac)[Dab][AEF][2Nal][αMeL]E[Dab][3Pal]-NHMe; lactam 3-6, N-10): the Emax in data set [1] was 97%. Further, in data set [2], the half-inhibitory concentration (IC50) stood at 0.058 nM and the “hIL-23 (pSTAT3) antagonist % inhibition” value came to 98%. For the same compound, in data set [3], the share remaining at 1 h, 10 µM was 91% and the share remaining at 4 h, 10 µM was 89%. Further, in data set [4], the amount remaining at 1 h, 10 µM is 93% and the fraction remaining at 4 h, 10 µM is 90%.

Source of the values: patent US20260327264A1, “PEPTIDE INHIBITORS OF INTERLEUKIN-23 RECEPTOR” (Zealand Pharma A/S, priority 2023, published 2026).
